The record followed here is US20130225591A1, “IMIDOTHIAZOLE KINASE INHIBITORS” (priority 2009, published 2013).

For orientation: pIC50 means −log10 of the IC50, conventionally taken in molar units.

The assay addresses T1, CDK5-p25 kinase (Homo sapiens, UniProt Q00535).
T1 construct: purchased Invitrogen PV4677
The assay can be described thus: CDK5-p25 kinase enzymatic assay. The class given is biochemical. The settings on record: 5 uM ATP, 0.3 nM CDK5-p25. As to the method:
CDK5-p25 kinase (Invitrogen PV4677) enzymatic activity was measured using electrophoretic separation and fluorescent detection to monitor phosphorylation of a fluorescently labeled histone H1-derived peptide substrate, FL29 (5-FAM-GGGPATPKKAKKL-CONH2, Caliper #760429)
First, 0.25 uL of serially diluted compound in DMSO at 100× concentration was transferred into each well of a 384-well polystyrene assay plate. To this was added 15 uL of a 1.67× enzyme solution (500 pM enzyme, 1 mM DTT (Sigma D9779), 1× reconstitution buffer with protease inhibitor (Caliper #700329 proprietary formulation)), followed by centrifugation for 1 min at 1000 rpm, and incubation for 5-15 min at room temperature to allow binding of compound to enzyme. To initiate the reaction, 10 uL of substrate/ATP mix (245 mM Hepes pH 7.5, 0.003% Brij 35, 0.004% Tween, 12.75 uM ATP, 3.75 uM FL29 peptide) were added to each well, followed by centrifugation at 1000 rpm for 1 min. The reaction was then incubated at room temperature for 30 min. Final assay conditions were: 0.3 nM CDK5-p25, 1.5 uM peptide, 5 uM ATP, 0.6 mM DTT, 1% DMSO, 98 mM HEPES pH 7.5.
After incubation, reactions were quenched by the addition of 45 uL Caliper termination solution (Caliper proprietary formula), followed by centrifugation at 1000 rpm for 1 min. Extent of reaction (percentage conversion of substrate to phosphorylated product) was then measured using the Caliper EZ II reader. Dose-response curves were created by plotting the inhibition of enzyme activity (normalized relative to vehicle treated and no ATP control reactions) as a function of the log of compound concentration. The curve was analyzed using a four parameter logistical fit to calculate IC50 values.

Where [1] appears, read: 50 nM-99 nM, read-out: IC50 potency, CDK5-p25 kinase enzymatic assay, 50 nM-99 nM.
Where [2] appears, read: read-out: IC50 potency, CDK5-p25 kinase enzymatic assay, 100 nM-499 nM.
[3] abbreviates: '<50 nM', read-out: IC50 potency, CDK5-p25 kinase enzymatic assay, <50 nM.
[4] abbreviates: 500 nM-3 μM, read-out: IC50 potency, CDK5-p25 kinase enzymatic assay, 500 nM-3 μM.

pIC50: −log10 of the molar value. Where two headings read alike, the source gives them in different places.

T1 sequence (Q00535 whole entry): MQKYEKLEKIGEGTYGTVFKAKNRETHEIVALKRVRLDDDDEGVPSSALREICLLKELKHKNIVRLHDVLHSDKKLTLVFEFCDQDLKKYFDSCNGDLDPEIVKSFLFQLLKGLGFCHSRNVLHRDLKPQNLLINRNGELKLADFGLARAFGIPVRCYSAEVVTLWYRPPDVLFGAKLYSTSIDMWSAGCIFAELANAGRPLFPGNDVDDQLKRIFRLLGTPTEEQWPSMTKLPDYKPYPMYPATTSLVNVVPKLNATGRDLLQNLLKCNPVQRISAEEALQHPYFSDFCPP
T1 sequence (Q15078 99-307 partner limits assumed): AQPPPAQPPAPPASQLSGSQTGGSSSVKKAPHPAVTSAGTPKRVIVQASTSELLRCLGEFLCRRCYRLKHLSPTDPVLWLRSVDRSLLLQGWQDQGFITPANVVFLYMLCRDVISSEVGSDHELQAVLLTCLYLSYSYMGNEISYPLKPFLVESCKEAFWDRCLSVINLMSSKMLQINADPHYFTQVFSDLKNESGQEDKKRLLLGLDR

For the compound `CN(C)c1ccc(CC(=O)Nc2ncn3c(C(F)(F)F)csc23)cc1` [Example 31, 2-[4-(dimethylamino)phenyl]-N-[3-(trifluoromethyl)imidazo[5,1-b][1,3]thiazol-7-yl]acetamide], the pIC50 under setting [1] was 7.00 to 7.30.
Regarding `O=C(Cc1cncnc1)Nc1ncn2c(C(F)(F)F)csc12` [Example 32, 2-pyrimidin-5-yl-N-[3-(trifluoromethyl)imidazo[5,1-b][1,3]thiazol-7-yl]acetamide], under setting [2], the pIC50 is 6.30 to 7.00.
For the compound `O=C(Nc1ncn2c(C(F)(F)F)csc12)C(F)c1ccc2ccccc2c1` (stereo not shown) [Example 33, 2-fluoro-2-(2-naphthyl)-N-[3-(trifluoromethyl)imidazo[5,1-b][1,3]thiazol-7-yl]acetamide], the pIC50 under setting [3] is above 7.30.
As to `CC(C(=O)Nc1ncn2c(C(F)(F)F)csc12)c1ccc2ccccc2c1` (stereo not shown) [Example 34, 2-(2-naphthyl)-N-[3-(trifluoromethyl)imidazo[5,1-b][1,3]thiazol-7-yl]propanamide], the pIC50 under setting [2] is 6.30 to 7.00.
As to `Nc1ncc(-c2ccc(CC(=O)Nc3ncn4c(C(F)(F)F)csc34)cc2)cn1` [Example 35, 2-[4-(2-aminopyrimidin-5-yl)phenyl]-N-[3-(trifluoromethyl)imidazo[5,1-b][1,3]thiazol-7-yl]acetamide], under setting [1], the pIC50 was 7.00 to 7.30.
As for `C[C@H](C(=O)Nc1ncn2c(C(F)(F)F)csc12)c1ccc2ccccc2c1` [Example 36, (2S)-2-(2-naphthyl)-N-[3-(trifluoromethyl)imidazo[5,1-b][1,3]thiazol-7-yl]propanamide], the pIC50 under setting [1] was 7.00 to 7.30.
`O=C(Cc1ccc2[nH]ncc2c1)Nc1ncn2c(C(F)(F)F)csc12` [Example 37, 2-(1H-indazol-5-yl)-N-[3-(trifluoromethyl)imidazo[5,1-b][1,3]thiazol-7-yl]acetamide]: under setting [3], the pIC50 is above 7.30.
With `O=C(Cc1ccc2ccccc2c1)Nc1ncn2c(C3CC3)csc12` [Example 38, N-(3-cyclopropyl-imidazo[5,1-b][1,3]thiazol-7-yl)-2-(2-naphthyl) acetamide], the negative logarithm of the IC50 (pIC50) under setting [4] is 5.52 to 6.30.
As to `CC(C(=O)Nc1ncn2c(C(F)(F)F)csc12)c1ccc2ncccc2c1` (stereo not shown) [Example 39, 2-quinolin-6-yl-N-[3-(trifluoromethyl)imidazo[5,1-b][1,3]thiazol-7-yl]propanamide], under setting [1], the pIC50 was 7.00 to 7.30.
`O=C(Nc1ncn2c(C(F)(F)F)csc12)C(O)c1ccc2ccccc2c1` (stereo not shown) [Example 40, 2-hydroxy-2-(2-naphthyl)-N-[3-(trifluoromethyl)imidazo[5,1-b][1,3]thiazol-7-yl]acetamide]: the negative logarithm of the IC50 (pIC50) under setting [2] was 6.30 to 7.00.
As for `O=C(Cc1ccc2ccccc2c1)Nc1ncn2c(C(F)F)csc12` [Example 41, N-[3-(difluoromethyl)imidazo[5,1-b][1,3]thiazol-7-yl]-2-(2-naphthyl) acetamide], the pIC50 under setting [1] was 7.00 to 7.30.
For the compound `O=C(Nc1ncn2c(C(F)(F)F)csc12)C(Cl)c1ccc2ccccc2c1` (stereo not shown) [Example 42, 2-chloro-2-(2-naphthyl)-N-[3-(trifluoromethyl)imidazo[5,1-b][1,3]thiazol-7-yl]acetamide], the pIC50 under setting [1] is 7.00 to 7.30.
For the compound `O=C(Cc1ccc(Cl)cc1)Nc1ncn2c(C(F)(F)F)csc12` [Example 43, 2-(4-chlorophenyl)-N-[3-(trifluoromethyl)imidazo[5,1-b][1,3]thiazol-7-yl]acetamide], under setting [3], the pIC50 is above 7.30.
The same measure, in the same setting: under `C[C@H](C(=O)Nc1ncn2c(C(F)(F)F)csc12)c1ccc2ncccc2c1` [Example 46, (2S)-2-quinolin-6-yl-N-[3-(trifluoromethyl)imidazo[5,1-b][1,3]thiazol-7-yl]propanamide] stands above 7.30.
Take `C[C@@H](C(=O)Nc1ncn2c(C(F)(F)F)csc12)c1ccc2ncccc2c1` [Example 47, (2R)-2-quinolin-6-yl-N-[3-(trifluoromethyl)imidazo[5,1-b][1,3]thiazol-7-yl]propanamide]: the pIC50 under setting [4] was 5.52 to 6.30.
Turning to `O=C(Cc1cccc(-c2cc[nH]n2)c1)Nc1ncn2c(C(F)(F)F)csc12` [Example 48, 2-[3-(1H-pyrazol-3-yl)phenyl]-N-[3-(trifluoromethyl)imidazo[5,1-b][1,3]thiazol-7-yl]acetamide], under setting [3], the pIC50 was above 7.30.
Consider `Nc1cc(Nc2cccc(CC(=O)Nc3ncn4c(C(F)(F)F)csc34)c2)ccn1` [Example 49, 2-{3-[(2-aminopyridin-4-yl)amino]phenyl}-N-[3-(trifluoromethyl)imidazo[5,1-b][1,3]thiazol-7-yl]acetamide], for which, under setting [1], the pIC50 was 7.00 to 7.30.
`O=C(Cc1ccc(-c2ccccc2)nc1)Nc1ncn2c(C(F)(F)F)csc12` [Example 50, 2-(6-phenylpyridin-3-yl)-N-[3-(trifluoromethyl)imidazo[5,1-b][1,3]thiazol-7-yl]acetamide]: under setting [3], the negative logarithm of the IC50 (pIC50) was above 7.30.
On to `Cc1cnc(-c2ccc(CC(=O)Nc3ncn4c(C(F)(F)F)csc34)cc2)cn1` [Example 51, 2-[4-(5-methylpyrazin-2-yl)phenyl]-N-[3-(trifluoromethyl)imidazo[5,1-b][1,3]thiazol-7-yl]acetamide], for which, under setting [2], the pIC50 is 6.30 to 7.00.
Turning to `O=C(Cc1cccc(-c2cccnc2)c1)Nc1ncn2c(C(F)(F)F)csc12` [Example 52, 2-(3-pyridin-3-ylphenyl)-N-[3-(trifluoromethyl)imidazo[5,1-b][1,3]thiazol-7-yl]acetamide], the pIC50 under setting [3] was above 7.30.
On the same count and under the same terms, under `O=C(Cc1ccc(-c2ccsc2)cc1)Nc1ncn2c(C(F)(F)F)csc12` [Example 53, 2-[4-(3-thienyl)phenyl]-N-[3-(trifluoromethyl)imidazo[5,1-b][1,3]thiazol-7-yl]acetamide] stands above 7.30; under `O=C(Cc1ccc(-c2ccccn2)cc1)Nc1ncn2c(C(F)(F)F)csc12` [Example 54, 2-(4-pyridin-2-ylphenyl)-N-[3-(trifluoromethyl)imidazo[5,1-b][1,3]thiazol-7-yl]acetamide], above 7.30; under `Cc1ccc(-c2ccc(CC(=O)Nc3ncn4c(C(F)(F)F)csc34)cc2)cn1` [Example 55, 2-[4-(6-methylpyridin-3-yl)phenyl]-N-[3-(trifluoromethyl)imidazo[5,1-b][1,3]thiazol-7-yl]acetamide], above 7.30.
Still for that read-out and setting: under `O=C(Cc1cccc(-c2ccccn2)c1)Nc1ncn2c(C(F)(F)F)csc12` [Example 56, 2-(3-pyridin-2-ylphenyl)-N-[3-(trifluoromethyl)imidazo[5,1-b][1,3]thiazol-7-yl]acetamide] stands above 7.30.
Regarding `O=C(Cc1c[nH]c2ccccc12)Nc1ncn2c(C(F)(F)F)csc12` [Example 57, 2-(1H-indol-3-yl)-N-[3-(trifluoromethyl)imidazo[5,1-b][1,3]thiazol-7-yl]acetamide], under setting [1], the pIC50 is 7.00 to 7.30.
For the compound `CS(=O)(=O)c1ccc(CC(=O)Nc2ncn3c(C(F)(F)F)csc23)cc1` [Example 58, 2-[4-(methylsulfonyl)phenyl]-N-[3-(trifluoromethyl)imidazo[5,1-b][1,3]thiazol-7-yl]acetamide], the pIC50 under setting [2] was 6.30 to 7.00.
Regarding `O=C(Cc1cccc(NC(=O)c2cccnc2)c1)Nc1ncn2c(C(F)(F)F)csc12` [Example 59, N-[3-(2-oxo-2-{[3-(trifluoromethyl)imidazo[5,1-b][1,3]thiazol-7-yl]amino}ethyl)phenyl] nicotinamide], the pIC50 under setting [1] was 7.00 to 7.30.
Turning to `O=C(Cc1cccc(NC(=O)c2ccncc2)c1)Nc1ncn2c(C(F)(F)F)csc12` [Example 60, N-[3-(2-oxo-2-{[3-(trifluoromethyl)imidazo[5,1-b][1,3]thiazol-7-yl]amino}ethyl)phenyl] isonicotinamide], the pIC50 under setting [1] is 7.00 to 7.30.
